Measured values: PubChem BioAssay AID330 (DTP/NCI, 2004)
“And” between values parts separate entries of the source, which are not always exact repeats. Equal entries are not always repeated. Toxic doses and inconclusive results are not listed.

Test system: P388 leukemia ip, CD2F1 mice, survival T/C
Test: NCI In Vivo Anticancer Drug Screen. Data for tumor model P388 Leukemia (intraperitoneal) in CD2F1 (CDF1) mice
Conditions: endpoint: median survival time, higher = longer survival
Procedure, shortened: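 Mice carrying the transplanted tumor received test compound or vehicle. Survival was recorded in each group, and the value is the treated-group measurement divided by that of the vehicle-treated control group.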

[1] = dose: 50.0 mg/kg/injection, schedule: Q01DX009 (ip), vehicle: Klucel (hydroxypropylcellulose) (HPC)
[2] = dose: 100.0 mg/kg/injection, schedule: Q01DX009 (ip), vehicle: Klucel (hydroxypropylcellulose) (HPC)
[3] = dose: 200.0 mg/kg/injection, schedule: Q01DX009 (ip), vehicle: Klucel (hydroxypropylcellulose) (HPC)
[4] = dose: 25.0 mg/kg/injection, schedule: Q01DX009 (ip), vehicle: Klucel (hydroxypropylcellulose) (HPC)

In the case of `CCCCCCCCCc1cc(=O)n(-c2ccc(C(=O)OCC)cc2)n1C`, the T/C [1] is reported as 104 % of control, the T/C [2] is reported as 90 % of control and the T/C [3] is reported as 93 % of control.

For `COc1cc2c(cc1OC)[C@]13C[C@@H](OC)C=CC14OC4CN3CCC2` (stereo partly drawn), the T/C (dose: 20.0 mg/kg/injection, schedule: Q01DX009 (ip), vehicle: saline with Tween-80) was 90 % of control, the T/C (dose: 40.0 mg/kg/injection, schedule: Q01DX009 (ip), vehicle: saline with Tween-80) was 95 % of control and the T/C (dose: 80.0 mg/kg/injection, schedule: Q01DX009 (ip), vehicle: saline with Tween-80) was 90 % of control. For the same compound, the T/C (dose: 150.0 mg/kg/injection, schedule: Q01DX009 (ip), vehicle: saline with Tween-80) was 122 % of control.

With `[O-][n+]1c(Cl)c(Cl)[n+]([O-])c2[nH]c(C(F)(F)F)nc21` the T/C (dose: 25.0 mg/kg/injection, schedule: Q01DX005 (ip), vehicle: saline with Tween-80) was 103 % of control, the T/C (dose: 50.0 mg/kg/injection, schedule: Q01DX005 (ip), vehicle: saline with Tween-80) was 96 % of control and the T/C (dose: 100.0 mg/kg/injection, schedule: Q01DX005 (ip), vehicle: saline with Tween-80) was 102 % of control. For the same compound, the T/C (dose: 200.0 mg/kg/injection, schedule: Q01DX005 (ip), vehicle: saline with Tween-80) was 90 % of control and 96 % of control.

In the case of `CN(C)C1=C(Cl)C(=O)c2[nH]cnc2C1=O`, the T/C (dose: 6.25 mg/kg/injection, schedule: Q01DX005 (ip), vehicle: Klucel (hydroxypropylcellulose) (HPC)) is reported as 113 % of control, the T/C (dose: 12.5 mg/kg/injection, schedule: Q01DX005 (ip), vehicle: Klucel (hydroxypropylcellulose) (HPC)) is reported as 110 % of control and the T/C (dose: 25.0 mg/kg/injection, schedule: Q01DX005 (ip), vehicle: Klucel (hydroxypropylcellulose) (HPC)) is reported as 98 % of control.

In the case of `N#CC12C3C4C5C3C1C(C42)n1c(=O)n(-c2ccccc2)c(=O)n15` (stereo not drawn), the T/C (dose: 12.5 mg/kg/injection, schedule: Q01DX009 (ip), vehicle: Klucel (hydroxypropylcellulose) (HPC)) is reported as 89 % of control and 90 % of control, the T/C [4] is reported as 89 % of control and 92 % of control and the T/C [1] is reported as 90 % of control and 95 % of control. For the same compound, the T/C [2] was 98 % of control and the T/C [3] was 95 % of control.

For `CCN(CC)CCCC(C)Nc1cc(C)nc(Nc2nc3cc(Cl)c(Cl)cc3[nH]2)n1` (stereo not drawn), the T/C (dose: 2.5 mg/kg/injection, schedule: Q01DX009 (ip), vehicle: saline with Tween-80) was 100 % of control, the T/C (dose: 5.0 mg/kg/injection, schedule: Q01DX009 (ip), vehicle: saline with Tween-80) was 90 % of control and the T/C (dose: 10.0 mg/kg/injection, schedule: Q01DX009 (ip), vehicle: saline with Tween-80) was 100 % of control.

`O=NN(CC1(O)OCC(O)C(O)C1O)C(Cc1ccccc1)C(=O)O` (stereo not drawn) was tested, and the T/C (dose: 50.0 mg/kg/injection, schedule: Q01DX005 (ip), vehicle: saline) was 104 % of control, the T/C (dose: 100.0 mg/kg/injection, schedule: Q01DX005 (ip), vehicle: saline) was 103 % of control and the T/C (dose: 200.0 mg/kg/injection, schedule: Q01DX005 (ip), vehicle: saline) was 97 % of control.

`COC(=O)C1=C/CCCN(CCC2OCC(CBr)O2)/C=C\1C(=O)OC` (stereo not drawn) was tested, and the T/C (dose: 100.0 mg/kg/injection, schedule: Q01DX001 (ip), vehicle: saline with Tween-80) was 99 % of control, the T/C (dose: 200.0 mg/kg/injection, schedule: Q01DX001 (ip), vehicle: saline with Tween-80) was 102 % of control and the T/C (dose: 400.0 mg/kg/injection, schedule: Q01DX001 (ip), vehicle: saline with Tween-80) was 98 % of control.

With `COc1ccc2c(=O)c(-c3ccc(OC)c(OC)c3)c(C)oc2c1` the T/C (dose: 60.0 mg/kg/injection, schedule: Q01DX005 (ip), vehicle: saline with Tween-80) was 94 % of control, the T/C (dose: 120.0 mg/kg/injection, schedule: Q01DX005 (ip), vehicle: saline with Tween-80) was 91 % of control and the T/C (dose: 240.0 mg/kg/injection, schedule: Q01DX005 (ip), vehicle: saline with Tween-80) was 86 % of control.

With `CNC1=CC(=O)c2c(c3cc(OC(C)=O)ccc3n2C)C1=O` the T/C (dose: 50.0 mg/kg/injection, schedule: Q01DX009 (ip), vehicle: saline) was 99 % of control, the T/C (dose: 100.0 mg/kg/injection, schedule: Q01DX009 (ip), vehicle: saline) was 99 % of control and the T/C (dose: 200.0 mg/kg/injection, schedule: Q01DX009 (ip), vehicle: saline) was 100 % of control.

For `CC1CC(C)CC(C)C(O)/C(C#N)=C/C=C/CC(C2CCCC2C(=O)O)OC(=O)CC(O)C(C)C1` (stereo not drawn), the T/C (dose: 0.5 mg/kg/injection, schedule: Q01DX009 (ip), vehicle: Klucel (hydroxypropylcellulose) (HPC)) was 163 % of control and 169 % of control, the T/C (dose: 0.78 mg/kg/injection, schedule: Q01DX009 (ip), vehicle: Klucel (hydroxypropylcellulose) (HPC)) was 150 % of control and the T/C (dose: 1.0 mg/kg/injection, schedule: Q01DX009 (ip), vehicle: Klucel (hydroxypropylcellulose) (HPC)) was 151 % of control and 152 % of control. For the same compound, the T/C (dose: 1.56 mg/kg/injection, schedule: Q01DX009 (ip), vehicle: Klucel (hydroxypropylcellulose) (HPC)) was 151 % of control and the T/C (dose: 3.13 mg/kg/injection, schedule: Q01DX009 (ip), vehicle: Klucel (hydroxypropylcellulose) (HPC)) was 153 % of control.

`Ic1ccc(C2CC(c3ccccc3)=NN2c2ccccc2)cc1` (stereo not drawn) was tested, and the T/C [4] was 97 % of control, the T/C [1] was 87 % of control and the T/C [2] was 87 % of control. The T/C [3] was 90 % of control.
